In ChEMBL document CHEMBL5291721, “A preclinical secondary pharmacology resource illuminates target-adverse drug reaction associations of marketed drugs” (Nat Commun, 2023):

Assays:
[1] = biological target: Growth hormone secretagogue receptor type 1 (Homo sapiens, UniProt Q92847)
[2] = biological target: Sodium-dependent noradrenaline transporter (Homo sapiens, UniProt P23975)
Bile salt export pump = Bile salt export pump (Homo sapiens, UniProt O95342); assay type: functional
[3] = biological target: T1, Alpha-2C adrenergic receptor (Homo sapiens, UniProt P18825); assay type: functional
T1 sequence (P18825 whole entry): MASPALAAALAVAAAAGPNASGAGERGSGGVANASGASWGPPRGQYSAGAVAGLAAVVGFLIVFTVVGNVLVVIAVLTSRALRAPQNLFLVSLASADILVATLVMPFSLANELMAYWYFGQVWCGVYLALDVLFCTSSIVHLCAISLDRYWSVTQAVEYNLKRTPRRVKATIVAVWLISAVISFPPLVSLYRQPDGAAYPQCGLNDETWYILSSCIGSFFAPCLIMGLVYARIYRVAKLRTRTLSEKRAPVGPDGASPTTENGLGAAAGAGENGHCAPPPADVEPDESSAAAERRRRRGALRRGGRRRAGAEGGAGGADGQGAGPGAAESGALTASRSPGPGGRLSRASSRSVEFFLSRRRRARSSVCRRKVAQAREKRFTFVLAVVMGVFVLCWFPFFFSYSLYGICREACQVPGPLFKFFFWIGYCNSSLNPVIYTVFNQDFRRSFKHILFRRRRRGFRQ

[4] = biological target: 5-hydroxytryptamine receptor 2B (Homo sapiens, UniProt P41595); assay type: functional, cell-based
[5] = biological target: T2, Cholecystokinin receptor type A (Homo sapiens, UniProt P32238)
T2 sequence (P32238 whole entry): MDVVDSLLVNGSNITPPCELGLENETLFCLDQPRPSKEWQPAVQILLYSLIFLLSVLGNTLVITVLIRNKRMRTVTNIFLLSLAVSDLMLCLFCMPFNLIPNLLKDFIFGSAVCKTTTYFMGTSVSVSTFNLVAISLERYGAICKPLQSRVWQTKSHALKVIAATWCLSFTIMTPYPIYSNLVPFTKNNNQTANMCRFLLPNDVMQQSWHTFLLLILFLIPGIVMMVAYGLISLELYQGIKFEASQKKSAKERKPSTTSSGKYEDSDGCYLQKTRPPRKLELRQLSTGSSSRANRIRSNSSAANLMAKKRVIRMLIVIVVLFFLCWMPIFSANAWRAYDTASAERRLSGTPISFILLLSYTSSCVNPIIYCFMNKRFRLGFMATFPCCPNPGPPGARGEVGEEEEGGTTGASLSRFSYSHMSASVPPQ

[6] = biological target: Gamma-aminobutyric acid receptor subunit alpha-1 (Rattus norvegicus, UniProt P62813); assay type: functional
[7] = biological target: T3, 5-hydroxytryptamine receptor 2C (Homo sapiens, UniProt P28335)
T3 sequence (P28335 whole entry): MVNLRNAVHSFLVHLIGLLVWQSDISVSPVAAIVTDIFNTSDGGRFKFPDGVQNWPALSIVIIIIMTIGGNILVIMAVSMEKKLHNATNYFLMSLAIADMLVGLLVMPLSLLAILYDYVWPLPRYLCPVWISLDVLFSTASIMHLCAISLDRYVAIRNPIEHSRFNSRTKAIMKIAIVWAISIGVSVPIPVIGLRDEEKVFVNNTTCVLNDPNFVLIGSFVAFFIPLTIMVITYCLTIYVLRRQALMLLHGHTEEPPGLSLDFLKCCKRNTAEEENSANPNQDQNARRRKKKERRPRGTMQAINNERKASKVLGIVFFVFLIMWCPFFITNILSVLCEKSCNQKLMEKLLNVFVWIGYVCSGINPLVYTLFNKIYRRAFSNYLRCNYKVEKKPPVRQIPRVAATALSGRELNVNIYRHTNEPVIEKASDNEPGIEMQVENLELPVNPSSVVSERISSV

[8] = biological target: T4, Muscarinic acetylcholine receptor M2 (Homo sapiens, UniProt P08172); assay type: functional, cell-based
T4 sequence (P08172 whole entry): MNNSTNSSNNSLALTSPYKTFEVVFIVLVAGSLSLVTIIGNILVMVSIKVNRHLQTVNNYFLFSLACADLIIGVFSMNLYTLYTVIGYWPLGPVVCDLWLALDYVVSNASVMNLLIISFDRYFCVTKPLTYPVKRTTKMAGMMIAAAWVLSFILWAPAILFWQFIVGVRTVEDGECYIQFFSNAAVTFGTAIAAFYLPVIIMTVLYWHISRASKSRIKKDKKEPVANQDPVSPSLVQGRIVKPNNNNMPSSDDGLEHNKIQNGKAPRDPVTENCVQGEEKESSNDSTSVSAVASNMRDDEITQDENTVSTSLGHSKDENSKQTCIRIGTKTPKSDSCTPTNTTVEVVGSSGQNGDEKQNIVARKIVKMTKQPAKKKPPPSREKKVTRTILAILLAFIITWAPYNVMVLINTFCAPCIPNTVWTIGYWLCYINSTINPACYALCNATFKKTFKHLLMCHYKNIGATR

Vasopressin V1a receptor = Vasopressin V1a receptor (Homo sapiens, UniProt P37288)
[9] = biological target: Delta-type opioid receptor (Homo sapiens, UniProt P41143)
[10] = biological target: Beta-1 adrenergic receptor (Homo sapiens, UniProt P08588); assay type: functional
[11] = biological target: T4, Muscarinic acetylcholine receptor M2; assay type: functional, cell-based; remark: listed apart in the source
[12] = biological target: cGMP-inhibited 3',5'-cyclic phosphodiesterase 3A (Homo sapiens, UniProt Q14432); assay type: functional
D(3) dopamine receptor = D(3) dopamine receptor (Homo sapiens, UniProt P35462)
Also: assay procedure not described here.

Sequence of Growth hormone secretagogue receptor type 1 (Q92847 whole entry): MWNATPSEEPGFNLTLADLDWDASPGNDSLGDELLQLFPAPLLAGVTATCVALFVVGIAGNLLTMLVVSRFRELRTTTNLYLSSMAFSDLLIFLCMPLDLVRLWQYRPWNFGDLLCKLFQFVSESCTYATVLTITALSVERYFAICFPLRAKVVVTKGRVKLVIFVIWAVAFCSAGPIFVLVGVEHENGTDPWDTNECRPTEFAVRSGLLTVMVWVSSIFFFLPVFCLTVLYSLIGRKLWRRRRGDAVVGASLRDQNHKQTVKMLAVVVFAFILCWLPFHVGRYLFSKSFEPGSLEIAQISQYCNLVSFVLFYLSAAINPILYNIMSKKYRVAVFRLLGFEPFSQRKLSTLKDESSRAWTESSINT
Sequence of Delta-type opioid receptor (P41143 whole entry): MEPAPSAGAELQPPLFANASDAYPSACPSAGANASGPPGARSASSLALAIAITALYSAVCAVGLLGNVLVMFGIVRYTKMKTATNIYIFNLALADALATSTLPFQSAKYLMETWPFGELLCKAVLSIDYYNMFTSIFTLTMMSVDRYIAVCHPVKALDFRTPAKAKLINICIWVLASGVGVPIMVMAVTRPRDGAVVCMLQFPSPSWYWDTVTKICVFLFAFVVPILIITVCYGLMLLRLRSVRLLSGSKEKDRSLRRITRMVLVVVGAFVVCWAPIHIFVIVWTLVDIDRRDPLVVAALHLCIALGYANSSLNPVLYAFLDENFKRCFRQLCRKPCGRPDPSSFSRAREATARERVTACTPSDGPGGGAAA
Sequence of Sodium-dependent noradrenaline transporter (P23975 whole entry): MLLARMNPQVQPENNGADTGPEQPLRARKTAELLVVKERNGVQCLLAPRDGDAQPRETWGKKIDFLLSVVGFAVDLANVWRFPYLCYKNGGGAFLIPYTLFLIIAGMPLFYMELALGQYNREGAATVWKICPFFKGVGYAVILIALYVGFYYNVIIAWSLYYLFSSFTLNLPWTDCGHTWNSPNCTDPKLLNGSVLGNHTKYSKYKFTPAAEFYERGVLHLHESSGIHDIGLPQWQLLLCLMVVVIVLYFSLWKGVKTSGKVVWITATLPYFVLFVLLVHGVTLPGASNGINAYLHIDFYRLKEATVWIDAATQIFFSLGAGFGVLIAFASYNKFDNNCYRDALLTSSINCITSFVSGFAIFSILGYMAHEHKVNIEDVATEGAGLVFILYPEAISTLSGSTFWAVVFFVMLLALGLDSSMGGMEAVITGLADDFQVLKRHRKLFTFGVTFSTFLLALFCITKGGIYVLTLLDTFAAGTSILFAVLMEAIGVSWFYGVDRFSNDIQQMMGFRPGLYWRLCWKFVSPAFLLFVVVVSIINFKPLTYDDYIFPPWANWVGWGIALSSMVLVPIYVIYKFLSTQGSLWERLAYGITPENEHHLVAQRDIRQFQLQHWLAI
Sequence of Vasopressin V1a receptor (P37288 whole entry): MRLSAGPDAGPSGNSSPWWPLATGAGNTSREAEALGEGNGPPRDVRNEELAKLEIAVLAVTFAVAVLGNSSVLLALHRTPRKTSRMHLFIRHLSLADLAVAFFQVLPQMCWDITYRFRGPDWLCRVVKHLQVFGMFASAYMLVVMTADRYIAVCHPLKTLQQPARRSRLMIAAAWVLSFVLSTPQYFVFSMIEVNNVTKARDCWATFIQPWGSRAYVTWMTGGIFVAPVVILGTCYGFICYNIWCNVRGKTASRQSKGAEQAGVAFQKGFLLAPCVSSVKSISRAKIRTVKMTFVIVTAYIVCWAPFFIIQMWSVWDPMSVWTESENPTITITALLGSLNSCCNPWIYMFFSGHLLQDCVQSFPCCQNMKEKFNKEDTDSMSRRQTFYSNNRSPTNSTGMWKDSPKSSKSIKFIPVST
Sequence of Beta-1 adrenergic receptor (P08588 whole entry): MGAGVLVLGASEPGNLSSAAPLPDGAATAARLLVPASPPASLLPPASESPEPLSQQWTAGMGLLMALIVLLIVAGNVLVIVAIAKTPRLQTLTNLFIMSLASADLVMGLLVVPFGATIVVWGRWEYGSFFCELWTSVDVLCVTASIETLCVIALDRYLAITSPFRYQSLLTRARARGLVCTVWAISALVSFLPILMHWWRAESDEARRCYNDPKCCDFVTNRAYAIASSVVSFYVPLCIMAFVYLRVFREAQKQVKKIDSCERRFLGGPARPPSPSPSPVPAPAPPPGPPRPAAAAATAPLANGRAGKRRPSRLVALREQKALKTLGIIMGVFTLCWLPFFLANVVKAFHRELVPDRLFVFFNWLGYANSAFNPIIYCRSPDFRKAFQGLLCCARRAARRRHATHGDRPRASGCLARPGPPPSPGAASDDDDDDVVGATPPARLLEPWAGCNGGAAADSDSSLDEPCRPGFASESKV
Sequence of 5-hydroxytryptamine receptor 2B (P41595 whole entry): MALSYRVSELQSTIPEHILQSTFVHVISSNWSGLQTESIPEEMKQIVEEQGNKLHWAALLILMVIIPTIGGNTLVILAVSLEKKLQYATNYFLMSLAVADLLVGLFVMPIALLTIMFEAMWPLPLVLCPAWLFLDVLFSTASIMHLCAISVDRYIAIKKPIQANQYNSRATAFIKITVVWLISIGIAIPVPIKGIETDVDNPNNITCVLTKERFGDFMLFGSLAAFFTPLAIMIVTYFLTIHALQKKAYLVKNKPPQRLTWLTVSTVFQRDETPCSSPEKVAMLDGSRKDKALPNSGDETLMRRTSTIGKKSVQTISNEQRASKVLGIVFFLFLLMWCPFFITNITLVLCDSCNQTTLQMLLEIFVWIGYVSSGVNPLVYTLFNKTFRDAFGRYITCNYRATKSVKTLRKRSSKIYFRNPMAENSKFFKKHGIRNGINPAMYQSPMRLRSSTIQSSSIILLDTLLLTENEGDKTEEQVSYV
Sequence of Bile salt export pump (O95342 whole entry): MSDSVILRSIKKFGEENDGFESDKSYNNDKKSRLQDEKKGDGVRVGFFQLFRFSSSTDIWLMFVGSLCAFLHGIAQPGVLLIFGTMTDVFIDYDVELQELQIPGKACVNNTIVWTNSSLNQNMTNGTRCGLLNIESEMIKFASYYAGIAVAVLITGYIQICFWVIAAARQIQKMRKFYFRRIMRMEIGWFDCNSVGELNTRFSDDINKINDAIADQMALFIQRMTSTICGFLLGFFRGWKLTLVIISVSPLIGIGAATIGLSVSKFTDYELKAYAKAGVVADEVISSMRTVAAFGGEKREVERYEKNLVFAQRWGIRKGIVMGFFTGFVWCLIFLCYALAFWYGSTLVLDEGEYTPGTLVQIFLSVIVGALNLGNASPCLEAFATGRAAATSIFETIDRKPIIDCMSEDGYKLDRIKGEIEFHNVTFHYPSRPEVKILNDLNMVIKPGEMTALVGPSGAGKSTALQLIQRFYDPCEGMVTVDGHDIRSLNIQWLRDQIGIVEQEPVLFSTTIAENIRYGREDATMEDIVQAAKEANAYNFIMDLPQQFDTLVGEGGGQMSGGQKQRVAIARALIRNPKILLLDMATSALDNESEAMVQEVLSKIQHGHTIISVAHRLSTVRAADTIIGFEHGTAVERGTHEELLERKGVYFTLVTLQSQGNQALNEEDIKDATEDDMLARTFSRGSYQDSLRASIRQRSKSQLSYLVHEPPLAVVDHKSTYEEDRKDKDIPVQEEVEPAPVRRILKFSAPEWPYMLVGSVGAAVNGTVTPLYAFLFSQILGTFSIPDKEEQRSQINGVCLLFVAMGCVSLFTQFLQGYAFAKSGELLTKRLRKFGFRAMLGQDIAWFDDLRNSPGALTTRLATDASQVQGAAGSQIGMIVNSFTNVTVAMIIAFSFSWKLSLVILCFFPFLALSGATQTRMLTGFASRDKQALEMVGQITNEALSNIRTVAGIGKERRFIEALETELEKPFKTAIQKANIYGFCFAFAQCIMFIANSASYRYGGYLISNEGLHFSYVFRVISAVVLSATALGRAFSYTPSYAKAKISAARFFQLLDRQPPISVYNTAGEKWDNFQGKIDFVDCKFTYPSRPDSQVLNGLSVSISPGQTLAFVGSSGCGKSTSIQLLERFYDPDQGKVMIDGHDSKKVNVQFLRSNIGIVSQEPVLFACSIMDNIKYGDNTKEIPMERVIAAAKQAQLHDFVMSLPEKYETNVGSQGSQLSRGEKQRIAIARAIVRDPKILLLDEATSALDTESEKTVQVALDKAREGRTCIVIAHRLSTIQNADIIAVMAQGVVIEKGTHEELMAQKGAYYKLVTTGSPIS
Sequence of D(3) dopamine receptor (P35462 whole entry): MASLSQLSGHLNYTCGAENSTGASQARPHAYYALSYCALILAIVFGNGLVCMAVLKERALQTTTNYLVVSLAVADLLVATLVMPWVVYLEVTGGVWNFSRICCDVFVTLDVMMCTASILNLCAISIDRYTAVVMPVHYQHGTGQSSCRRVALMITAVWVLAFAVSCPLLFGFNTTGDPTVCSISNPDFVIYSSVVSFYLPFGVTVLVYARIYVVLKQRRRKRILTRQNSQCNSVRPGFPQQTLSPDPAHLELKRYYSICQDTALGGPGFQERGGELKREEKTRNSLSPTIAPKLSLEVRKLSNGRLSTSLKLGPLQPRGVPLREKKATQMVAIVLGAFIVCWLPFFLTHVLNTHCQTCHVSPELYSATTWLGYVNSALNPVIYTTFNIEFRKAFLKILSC
Sequence of Gamma-aminobutyric acid receptor subunit alpha-1 (P62813 whole entry): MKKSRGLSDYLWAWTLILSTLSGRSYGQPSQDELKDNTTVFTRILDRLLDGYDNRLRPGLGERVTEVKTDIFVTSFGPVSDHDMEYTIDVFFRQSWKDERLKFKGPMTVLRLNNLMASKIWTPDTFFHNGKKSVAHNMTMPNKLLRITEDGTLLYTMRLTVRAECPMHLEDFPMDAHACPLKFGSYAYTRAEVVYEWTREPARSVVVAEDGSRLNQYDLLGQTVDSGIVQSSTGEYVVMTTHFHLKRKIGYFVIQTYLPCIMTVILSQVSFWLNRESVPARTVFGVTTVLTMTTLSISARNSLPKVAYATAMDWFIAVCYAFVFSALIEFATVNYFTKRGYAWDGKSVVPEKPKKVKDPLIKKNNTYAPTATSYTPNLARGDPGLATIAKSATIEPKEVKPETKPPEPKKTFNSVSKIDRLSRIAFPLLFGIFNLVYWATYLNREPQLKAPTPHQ

Row | AC50 [1] | AC50 [2] | AC50 (Bile salt export pump) | AC50 [3] | AC50 [4] | AC50 [5] | AC50 [6] | AC50 [7] | AC50 [8] | AC50 (Vasopressin V1a receptor) | AC50 [9] | AC50 [10] | AC50 [11] | AC50 [12] | AC50 (D(3) dopamine receptor) | Compound
1 | > 30 µM | > 30 µM | 5.4 µM | > 30 µM | > 30 µM | > 30 µM | > 30 µM | > 30 µM | 4.2 µM | > 30 µM | > 30 µM | > 30 µM | > 30 µM | > 30 µM | > 30 µM | CNC(=O)c1ccccc1Sc1ccc2c(/C=C/c3ccccn3)n[nH]c2c1 [AXITINIB]
2 | > 30 µM | > 30 µM | > 300 µM | > 30 µM | > 30 µM | > 30 µM | > 30 µM | > 30 µM | > 30 µM | > 30 µM | > 30 µM | > 30 µM | > 30 µM | > 30 µM | > 30 µM | CCCCN1C[C@H](O)[C@@H](O)[C@H](O)[C@H]1CO
3 | > 10 µM | > 10 µM | > 300 µM | > 10 µM | > 10 µM | > 10 µM | > 10 µM | > 30 µM | > 10 µM | > 10 µM | > 30 µM | > 10 µM | > 10 µM | > 30 µM | > 30 µM | NS(=O)(=O)Cc1noc2ccccc12 [ZONISAMIDE]
4 | > 30 µM | 13 µM | > 300 µM | 0.81 µM | > 30 µM | > 30 µM | > 30 µM | > 30 µM | > 30 µM | > 30 µM | > 30 µM | > 30 µM | > 30 µM | > 30 µM | 15 µM | COc1cc2nc(N(C)CCCNC(=O)C3CCCO3)nc(N)c2cc1OC (stereo not given) [ALFUZOSIN]
5 | > 30 µM | > 30 µM | > 300 µM | > 30 µM | > 30 µM | > 30 µM | > 30 µM | > 30 µM | > 30 µM | > 30 µM | > 30 µM | > 30 µM | > 30 µM | > 30 µM | > 30 µM | Nc1nc(NC2CC2)c2ncn([C@H]3C=C[C@@H](CO)C3)c2n1 [ABACAVIR]
6 | > 30 µM | > 30 µM | 32 µM | > 10 µM | > 10 µM | > 30 µM | > 10 µM | > 30 µM | > 10 µM | > 30 µM | > 30 µM | > 30 µM | > 10 µM | > 30 µM | > 30 µM | CN1C(C(=O)Nc2ccccn2)=C(O)c2sc(Cl)cc2S1(=O)=O [LORNOXICAM]
7 | > 30 µM | > 30 µM | 0.66 µM | > 30 µM | > 30 µM | > 30 µM | > 30 µM | > 30 µM | > 30 µM | > 30 µM | > 30 µM | > 30 µM | > 30 µM | > 30 µM | > 30 µM | CCC(C)n1ncn(-c2ccc(N3CCN(c4ccc(OCC5COC(Cn6cncn6)(c6ccc(Cl)cc6Cl)O5)cc4)CC3)cc2)c1=O (stereo not given) [ITRACONAZOLE]
8 | > 30 µM | 7.7 µM | > 300 µM | > 10 µM | > 10 µM | > 30 µM | > 10 µM | > 10 µM | > 10 µM | > 10 µM | > 10 µM | > 10 µM | > 10 µM | > 10 µM | > 10 µM | CN(C)CCC(c1ccc(Cl)cc1)c1ccccn1 (stereo not given) [CHLORPHENIRAMINE]
9 | > 10 µM | 15.7 µM | 34 µM | > 10 µM | > 10 µM | > 10 µM | > 10 µM | > 30 µM | > 10 µM | > 30 µM | > 30 µM | > 10 µM | > 10 µM | > 30 µM | > 30 µM | Cc1ccc(-c2cc(C(F)(F)F)nn2-c2ccc(S(N)(=O)=O)cc2)cc1 [CELECOXIB]

Row | Compound | AC50 [1] | AC50 [2] | AC50 (Bile salt export pump) | AC50 [3] | AC50 [4] | AC50 [5] | AC50 [6] | AC50 [7] | AC50 [8] | AC50 (Vasopressin V1a receptor) | AC50 [9] | AC50 [10] | AC50 [11] | AC50 [12] | AC50 (D(3) dopamine receptor)
10 | CC[C@H]1OC(=O)[C@H](C)[C@@H](O[C@H]2C[C@@](C)(OC)[C@@H](O)[C@H](C)O2)[C@H](C)[C@@H](O[C@@H]2O[C@H](C)C[C@H](N(C)C)[C@H]2O)[C@](C)(O)C[C@@H](C)CN(C)[C@H](C)[C@@H](O)[C@]1(C)O [AZITHROMYCIN] | > 30 µM | > 10 µM | 200 µM | > 10 µM | > 10 µM | > 30 µM | > 10 µM | > 30 µM | > 10 µM | > 10 µM | > 10 µM | > 10 µM | > 10 µM | > 30 µM | > 10 µM
11 | CNC1Cc2ccccc2N(C)c2ccccc21 (stereo not given) [METAPRAMINE] | > 30 µM | 16 µM | > 300 µM | 26 µM | 0.95 µM | > 30 µM | > 30 µM | 29 µM | > 30 µM | > 30 µM | > 30 µM | > 30 µM | > 30 µM | > 30 µM | > 30 µM
12 | CO[C@H]1C[C@@H]2CC[C@@H](C)[C@@](O)(O2)C(=O)C(=O)N2CCCC[C@H]2C(=O)O[C@H]([C@H](C)C[C@@H]2CC[C@@H](O)[C@H](OC)C2)CC(=O)[C@H](C)/C=C(\C)[C@@H](O)[C@@H](OC)C(=O)[C@H](C)C[C@H](C)/C=C/C=C/C=C/1C [SIROLIMUS] | > 30 µM | > 30 µM | 1.01 µM | > 10 µM | > 10 µM | > 30 µM | > 10 µM | > 30 µM | > 10 µM | > 30 µM | > 30 µM | > 10 µM | > 10 µM | > 30 µM | 0.87 µM
